Laboratory results as given in patent EP0666847B1 (priority 1993, dated 1995).
Counter-ions that a name gives are not always drawn.

What was measured:
5-HT1Dβ receptor [1] = target: T1, 5-HT1Dβ receptor (Homo sapiens, UniProt P28222); experiment: biochemical; format: binding; conditions: for 5-HT1Dβ/5HT1A: selectivity ratio, 5-HT1A binding with 3H-8-OH-DPAT, 5-HT1Dβ with 3H-5HT; for Ki: 3H-5HT, membranes of recombinant cells, 15 minute incubation at 37°C
T1 construct: expressed in transfected cells
T1 sequence (P28222 whole entry): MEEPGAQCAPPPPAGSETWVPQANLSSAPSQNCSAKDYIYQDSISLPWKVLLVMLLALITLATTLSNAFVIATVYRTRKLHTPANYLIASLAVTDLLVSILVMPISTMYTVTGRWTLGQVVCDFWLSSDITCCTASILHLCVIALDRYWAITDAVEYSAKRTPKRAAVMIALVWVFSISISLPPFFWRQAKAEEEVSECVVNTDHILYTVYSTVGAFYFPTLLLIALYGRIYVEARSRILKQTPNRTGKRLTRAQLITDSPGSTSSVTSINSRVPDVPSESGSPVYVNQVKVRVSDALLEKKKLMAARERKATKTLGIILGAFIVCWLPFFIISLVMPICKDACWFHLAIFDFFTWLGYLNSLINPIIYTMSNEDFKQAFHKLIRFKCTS
Experimental: Increasing levels of the test compound were incubated with the radioligand and the membrane homogenates prepared from the recombinant cells. After a 15 minute incubation at 37°C, the incubation was terminated by vacuum filtration. The filters were washed with buffer and the filters were counted for radioactivity using liquid scintillation spectrometry.

5-HT1Dβ receptor [2] = target: T1, 5-HT1Dβ receptor; experiment: Inhibition of forskolin-stimulated adenylate cyclase (cAMP radioimmunoassay) in 5-HT1Dβ-presenting CHO cells; format: cell-based
Experimental: CAMP levels were determined using a radioimmunoassay kit containing antibody specific for cAMP and radioiodinated cAMP. The amount of the compound that inhibited 50% of the forskolin-stimulated adenylate cyclase activity was determined from the inhibition curve data subjected to computer assisted analysis (Figure 1).

Structure (SMILES)	5-HT1Dβ/5HT1A (5-HT1Dβ receptor [1])	Ki (5-HT1Dβ receptor [1]) [nM]	EC50 (5-HT1Dβ receptor [2]) [nM]	inhibition at 0.001 µM (5-HT1Dβ receptor [2]; CHO, read-out: % Inhib. cAMP) [%]	inhibition at 0.01 µM (5-HT1Dβ receptor [2]; CHO, read-out: % Inhib. cAMP) [%]	inhibition at 0.1 µM (5-HT1Dβ receptor [2]; CHO, read-out: % Inhib. cAMP) [%]	inhibition at 1 µM (5-HT1Dβ receptor [2]; CHO, read-out: % Inhib. cAMP) [%]
CCCCCCCCCOc1ccc2[nH]cc(CCN)c2c1 [Example 4, 3-(2-aminoethyl)-5-nonyloxyindole oxalate]	260						
Cl.NCCc1c[nH]c2ccc(OCCCCCCCCO)cc12 [Example 5, 3-(2-aminoethyl)-5-(8-hydroxyoctyloxy)-indole hydrochloride]	119	0.3	200	0	11	33	92
CCOCCCCCCOc1ccc2[nH]cc(CCN)c2c1 [Example 8, 3-(2-aminoethyl)-5-(6-ethyloxyhexyloxy)-indole hydrochloride]	180	0.4					
CCCCOCCCCOc1ccc2[nH]cc(CCN)c2c1 [Example 9, 3-(2-aminoethyl)-5-(4-butyloxybutyloxy)-indole hydrochoride]	30	2.5					
